From patent US20260345621A1, “GABAA RECEPTOR MODULATORS AND USES THEREOF” (Engrail Therapeutics, Inc., priority 2022, published 2026)
“Also recorded” adds a separate entry of the source.

Assays:
[1] = target: human GABAA receptor α5/β3/γ2 (Homo sapiens, UniProt P18507+P31644); assay: SyncroPatch platform, PAM mode, GABAA α5/β3/γ2
[2] = system: EEG power; assay: Quantitative electroencephalography (qEEG); assay type: in vivo, human (healthy volunteers)
Experimental: (§1) A clinical study was developed to evaluate safety, tolerability, pharmacokinetics, and pharmacodynamics of Compound 1 at plasma steady-state in 40 healthy human volunteers. Compound 1 (provided as Compound 1 phosphate) was administered to participants as multiple ascending doses of 0.5 mg (N=6), 1.0 mg (N=6), 1.5 mg (N=6), 2.0 mg (N=6), or 5.0 mg (N=6) once daily (QD) for 12 days.
(§2) Pharmacodynamic analyses included the NEUROCART® assessments, cognitive assessments Visual Verbal Learning Task (VVLT), and quantitative electroencephalography (qEEG). All PD analyses were based on the PD Analysis Set. For all PD endpoints, the baseline was calculated as average of the Day −1 measurements.
(§3) NEUROCART®, VVLT, and qEEG assessments were listed and summarized (absolute and change from baseline) using descriptive statistics at baseline and at each post-baseline time point. To establish whether significant treatment effects could be detected on the repeatedly measured NEUROCART® parameters, each parameter was analyzed with a mixed model analysis of covariance (ANCOVA) with treatment, time, and treatment by time as fixed factors, participant as a random factor, and the (average) baseline measurement as a covariate.

[3] = system: sleep stages; assay: Sleep-stage analysis in wirelessly implanted rats; settings: Lorazepam 1 mg/kg IP
[4] = system: CNS function (NEUROCART); assay type: in vivo, human (healthy volunteers)
Experimental: (§4) A clinical study was developed to evaluate safety, tolerability, pharmacokinetics, and pharmacodynamics of Compound 1 at plasma steady-state in 40 healthy human volunteers. […].
as §2, §3

[5] = system: memory (Visual Verbal Learning Task); assay type: in vivo, human (healthy volunteers); settings: oral QD 12 days; dose and day in value
Experimental: as §4, §2, §3

[6] = system: EEG spectral bands; assay: Pharmaco-EEG spectral analysis in wirelessly implanted rats
[7] = target: human GABAA receptor α1/β3/γ2 (Homo sapiens, UniProt P14867+P18507); assay: SyncroPatch platform, PAM mode, GABAA α1/β3/γ2
Chain of human GABAA receptor α1/β3/γ2 (P14867 28-456): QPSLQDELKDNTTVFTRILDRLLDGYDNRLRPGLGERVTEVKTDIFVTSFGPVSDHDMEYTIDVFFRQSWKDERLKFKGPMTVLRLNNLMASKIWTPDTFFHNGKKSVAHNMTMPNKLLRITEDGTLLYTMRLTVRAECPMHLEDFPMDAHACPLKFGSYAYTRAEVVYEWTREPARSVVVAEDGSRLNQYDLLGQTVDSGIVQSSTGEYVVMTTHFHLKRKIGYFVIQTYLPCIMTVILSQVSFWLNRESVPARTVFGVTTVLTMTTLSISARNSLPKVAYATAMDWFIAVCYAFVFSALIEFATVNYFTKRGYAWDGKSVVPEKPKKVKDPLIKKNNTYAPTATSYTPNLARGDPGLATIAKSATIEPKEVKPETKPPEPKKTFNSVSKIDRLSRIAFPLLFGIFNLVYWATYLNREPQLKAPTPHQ
Chain of human GABAA receptor α1/β3/γ2 (P18507 40-475): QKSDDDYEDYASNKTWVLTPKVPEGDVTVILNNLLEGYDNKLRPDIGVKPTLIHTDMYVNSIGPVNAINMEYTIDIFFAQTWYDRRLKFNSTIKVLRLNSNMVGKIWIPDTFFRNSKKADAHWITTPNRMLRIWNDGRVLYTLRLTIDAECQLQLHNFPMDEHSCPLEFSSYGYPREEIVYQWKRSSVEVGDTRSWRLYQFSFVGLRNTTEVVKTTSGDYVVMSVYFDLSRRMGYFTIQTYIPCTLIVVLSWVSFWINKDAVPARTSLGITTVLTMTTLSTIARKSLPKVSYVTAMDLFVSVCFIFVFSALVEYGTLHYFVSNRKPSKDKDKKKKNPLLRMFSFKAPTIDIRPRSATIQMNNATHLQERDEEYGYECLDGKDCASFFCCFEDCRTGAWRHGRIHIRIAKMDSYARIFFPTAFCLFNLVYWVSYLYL
Chain of human GABAA receptor α1/β3/γ2 (P28472 26-473 partner): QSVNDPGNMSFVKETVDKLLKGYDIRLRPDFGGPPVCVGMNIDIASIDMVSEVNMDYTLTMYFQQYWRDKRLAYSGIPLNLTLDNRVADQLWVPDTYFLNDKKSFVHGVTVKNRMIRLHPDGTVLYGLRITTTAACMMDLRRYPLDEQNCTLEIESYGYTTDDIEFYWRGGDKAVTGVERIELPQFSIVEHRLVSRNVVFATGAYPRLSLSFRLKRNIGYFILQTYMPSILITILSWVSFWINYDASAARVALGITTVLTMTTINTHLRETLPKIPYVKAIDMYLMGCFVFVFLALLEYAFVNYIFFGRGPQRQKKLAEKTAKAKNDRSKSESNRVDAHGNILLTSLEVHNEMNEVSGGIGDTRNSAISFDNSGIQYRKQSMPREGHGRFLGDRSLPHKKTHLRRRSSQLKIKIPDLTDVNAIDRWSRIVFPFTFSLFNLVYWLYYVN

[8] = system: alertness/sedation; assay: MOAA/S (Modified Observer's Assessment Alertness/Sedation); assay type: in vivo, human (healthy volunteers)
Experimental: as §1
Safety and tolerability of Compound 1 were assessed through listings and summaries by Compound 1 dose versus placebo (observed and change from baseline where applicable) for the following measures: treatment-emergent adverse events (TEAEs), clinical laboratory evaluation, vital signs, electrocardiogram, physical examination, pregnancy test, C-SSRS, and MOAA/S (Modified Observer's Assessment Alertness/Sedation). Continuous safety data were summarized with descriptive statistics (n, arithmetic mean, standard deviation (SD), median, minimum, and maximum) by dose level. Categorical safety data were summarized with incidence counts and percentages by dose level.
No clear difference from placebo in sedation across ascending Cohorts according to objective MOAA/S (Modified Observer's Assessment Alertness/Sedation) scoring was observed. A decrease in the MOAA/S score for alertness/sedation indicates impaired participant alertness and increased sedation as objectively determined by a clinician. […] For Compound 1 5.0 mg, a MOAA/S score of 2 (“Responds only after mild prodding or shaking”) was assessed for 1 participant. For the other participants in the Compound 1 5.0 mg Cohort and all other Cohorts, MOAA/S scores were above 3 indicating no difference from placebo in sedation across ascending Cohorts.

[9] = target: human GABAA receptor α2/β3/γ2 (Homo sapiens, UniProt P18507+P47869); assay: SyncroPatch platform, PAM mode, GABAA α2/β3/γ2
Chain of human GABAA receptor α2/β3/γ2 (P47869 29-451): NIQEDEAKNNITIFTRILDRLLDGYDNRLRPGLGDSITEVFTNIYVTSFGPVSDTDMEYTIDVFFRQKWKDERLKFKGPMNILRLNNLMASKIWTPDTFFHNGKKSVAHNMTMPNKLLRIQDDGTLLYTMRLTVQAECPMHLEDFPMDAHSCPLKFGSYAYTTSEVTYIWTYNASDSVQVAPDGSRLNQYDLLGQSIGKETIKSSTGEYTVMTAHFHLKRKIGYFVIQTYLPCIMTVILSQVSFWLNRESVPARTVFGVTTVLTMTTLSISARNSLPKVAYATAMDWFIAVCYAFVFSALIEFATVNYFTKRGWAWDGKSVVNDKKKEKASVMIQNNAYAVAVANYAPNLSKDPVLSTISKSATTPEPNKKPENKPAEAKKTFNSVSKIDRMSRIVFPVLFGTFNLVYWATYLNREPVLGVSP
Chain of human GABAA receptor α2/β3/γ2 (P18507 40-475): as the sequence (P18507 40-475) above
Chain of human GABAA receptor α2/β3/γ2 (P28472 26-473 partner): as the sequence (P28472 26-473 partner) above

[10] = target: human GABAA receptor α3/β3/γ2 (Homo sapiens, UniProt P18507+P34903); assay: SyncroPatch platform, PAM mode, GABAA α3/β3/γ2
Chain of human GABAA receptor α3/β3/γ2 (P34903 29-492): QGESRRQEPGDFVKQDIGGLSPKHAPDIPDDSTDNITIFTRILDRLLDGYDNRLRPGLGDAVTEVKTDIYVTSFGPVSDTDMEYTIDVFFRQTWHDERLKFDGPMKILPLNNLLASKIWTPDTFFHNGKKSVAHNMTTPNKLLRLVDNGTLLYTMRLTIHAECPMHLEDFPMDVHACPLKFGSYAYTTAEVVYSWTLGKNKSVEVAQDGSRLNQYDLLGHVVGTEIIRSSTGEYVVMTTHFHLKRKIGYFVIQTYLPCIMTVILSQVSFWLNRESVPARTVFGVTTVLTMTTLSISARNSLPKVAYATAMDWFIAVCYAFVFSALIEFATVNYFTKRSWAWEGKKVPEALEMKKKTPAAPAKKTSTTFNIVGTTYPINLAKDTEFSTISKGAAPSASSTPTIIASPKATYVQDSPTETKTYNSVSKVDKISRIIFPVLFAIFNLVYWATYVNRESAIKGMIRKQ
Chain of human GABAA receptor α3/β3/γ2 (P18507 40-475): as the sequence (P18507 40-475) above
Chain of human GABAA receptor α3/β3/γ2 (P28472 26-473 partner): as the sequence (P28472 26-473 partner) above

[11] = participants receiving Compound 1
[12] = oral QD 12 days, dose and day in value
[13] = Frontal-Parietal cortex, Quiet Wake

Chain of human GABAA receptor α5/β3/γ2 (P31644 32-462): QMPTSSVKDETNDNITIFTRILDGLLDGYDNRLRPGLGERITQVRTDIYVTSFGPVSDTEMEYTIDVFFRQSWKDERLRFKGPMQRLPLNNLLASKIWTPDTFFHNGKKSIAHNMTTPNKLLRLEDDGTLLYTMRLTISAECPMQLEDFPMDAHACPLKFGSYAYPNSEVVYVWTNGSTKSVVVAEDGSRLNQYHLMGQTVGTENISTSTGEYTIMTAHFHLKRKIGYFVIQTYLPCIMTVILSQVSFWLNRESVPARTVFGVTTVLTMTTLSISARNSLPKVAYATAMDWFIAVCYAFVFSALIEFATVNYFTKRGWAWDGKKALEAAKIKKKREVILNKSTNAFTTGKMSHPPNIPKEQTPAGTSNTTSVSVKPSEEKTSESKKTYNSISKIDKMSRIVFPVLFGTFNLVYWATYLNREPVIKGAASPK
Chain of human GABAA receptor α5/β3/γ2 (P18507 40-475): as the sequence (P18507 40-475) above
Chain of human GABAA receptor α5/β3/γ2 (P28472 26-473 partner): as the sequence (P28472 26-473 partner) above

Which results are given for `CC(C)(O)c1cnn2c(-c3ccc(F)c(-c4c(F)cccc4C#N)c3)cnc2n1` [Compound 1, 2′,6-difluoro-5′-(3-(2-hydroxypropan-2-yl)imidazo[1,2-b][1,2,4]triazin-7-yl)-[1,1′-biphenyl]-2-carbonitrile]?
EC50 [1]: 200 pM; Emax [1]: 96%; EEG gamma-power Pz-O2 (eyes open) ([2]; any dose level): No treatment effect on Pz-O2 (eyes open) for any dose level; EEG beta-power Pz-O1 or Pz-O2 (eyes open and closed) ([2]; any dose, Day 1 or Day 12): No treatment effect on Pz-O1 or Pz-O2 (eyes open and eyes dosed) at any dose on Day 1 or Day 12; EEG alpha-power Fz-Cz (eyes closed) ([2]; dose and day in value): Significant decrease in Fz-Cz (eyes dosed) at 1.5 mg, 2.0 mg, and 5.0 mg on Day 12; EEG alpha-power Fz-Cz (eyes open) ([2]; dose and day in value): Significant decrease in Fz-Cz (eyes open) at 1.5 mg on Day 1 and at 1.5 mg, 2.0 mg, and 5.0 mg on Day 12; EEG alpha-power Pz-O1 (eyes closed) ([2]; dose and day in value): Significant decrease in Pz-O1 (eyes closed) at 1.5 mg on Day 1 and at 1.5 mg, 2.0 mg, and 5.0 mg on Day 12; EEG alpha-power Pz-O1 (eyes open) ([2]; dose and day in value): Significant decrease in Pz-O1 (eyes open) at 1.5 mg, 2.0 mg, and 5.0 mg on Day 12; EEG alpha-power Pz-O2 (eyes closed) ([2]; dose and day in value): Significant decrease in Pz-O2 (eyes dosed) at 1.5 mg, 2.0 mg, and 5.0 mg on Day 12; EEG alpha-power Pz-O2 (eyes open) ([2]; dose and day in value): Significant decrease in Pz-O2 (eyes open) at 1.5 mg, 2.0 mg, and 5.0 mg on Day 12; EEG beta-power Fz-Cz (eyes closed) ([2]; dose and day in value): Significant increase in Fz-Cz (eyes closed) at 2.0 mg and 5.0 mg on Day 1 but at none of the doses on Day 12; EEG beta-power Fz-Cz (eyes open) ([2]; dose and day in value): Significant increase in Fz-Cz (eyes open) at 2.0 mg and 5.0 mg on Day 1 and at 0.5 mg, 2.0 mg, and 5.0 mg on Day 12; EEG delta-power Fz-Cz (eyes closed) ([2]; dose and day in value): Significant decrease in Fz-Cz (eyes closed) at all dose levels on Day 12; EEG delta-power Fz-Cz (eyes open) ([2]; dose and day in value): Significant decrease in Fz-Cz (eyes open) only at 1.0 mg on Day 12; EEG delta-power Pz-O1 (eyes closed) ([2]; dose and day in value): Significant decrease in Pz-O1 (eyes closed) at 1.0 mg, 1.5 mg, 2.0 mg, and 5.0 mg on Day 12; EEG delta-power Pz-O1 and Pz-O2 (eyes open) ([2]; dose and day in value): Significant decrease in Pz-O1 and Pz-O2 (eyes open) at 1.5 mg, 2.0 mg, and 5.0 mg on Day 12; EEG delta-power Pz-O2 (eyes closed) ([2]; dose and day in value): Significant decrease in Pz-O2 (eyes closed) at all dose levels on Day 12; EEG gamma-power Fz-Cz (eyes closed and eyes open) ([2]; dose and day in value): Significant increase in Fz-Cz (eyes closed and eyes open) at 2.0 mg on Day 1 and at 2.0 mg and 5.0 mg on Day 12; EEG gamma-power Pz-O1 (eyes closed and eyes open) ([2]; dose and day in value): Significant decrease in Pz-O1 (eyes dosed and eyes open) at 1.5 mg, 2.0 mg, and 5.0 mg on Day 1; EEG gamma-power Pz-O2 (eyes closed) ([2]; dose and day in value): No treatment effect on Pz-O2 (eyes closed) for any dose level except for 5.0 mg on Day 12; EEG theta-power Fz-Cz (eyes closed and eyes open) ([2]; dose and day in value): Significant decrease in Fz-Cz (eyes closed and eyes open) at 1.0 mg, 1.5 mg, 2.0 mg, and 5.0 mg on Day 12; EEG theta-power Pz-O1 and Pz-O2 (eyes closed and eyes open) ([2]; dose and day in value): Significant decrease in Pz-O1 and Pz-O2 (eyes closed and eyes open) at 1.5 mg, 2.0 mg, and 5.0 mg on Day 12; most consistent effects on qEEG ([2]; doses >1.5 mg, Day 12): decreased alpha- and theta-power on Day 12 that were suggestive of dose- or concentration-dependence and target engagement, but the increased beta-power on Day 12 did not suggest dose- or concentration-dependence; also recorded: decreased alpha- and theta-power, and increased beta-power; moderate somnolence (2.0 mg and 5.0 mg): Two TEAEs of moderate somnolence; moderate balance disorder (5.0 mg): 1 TEAE of moderate balance disorder; concomitant medications or physical examination findings (0.5-5.0 mg oral QD 12 days): No consistent differences; mean QTcF increase (0.5-5.0 mg oral QD 12 days): No clinically relevant increase; severe TEAEs or SAEs (0.5-5.0 mg oral QD 12 days): No severe TEAEs or serious adverse events (SAEs) occurred; suicidal ideation or behaviors (C-SSRS) (0.5-5.0 mg oral QD 12 days): No positive responses; participants with TEAEs of moderate severity (5/40 participants): 12.5%; participants with TEAEs of mild severity (34/40 participants): 85.0%; number of TEAEs of moderate severity (in 5/40 participants): 6; dizziness [11]: 20.0%; postural dizziness [11]: 30.0%; incidence of somnolence versus placebo (pooled placebo): approximately twice as high as the placebo-treated participants; NREM onset ([3]; Compound 1 1 mg/kg PO): did not change NREM onset; also recorded: does not decrease time to Non-REM onset; Active Wake ([3]; Compound 1 PO): decreased Active Wake; NREM ([3]; Compound 1 PO): increased NREM; Quiet Wake ([3]; Compound 1 PO): only Compound 1 decreased Quiet Wake; consistency of effects on SPV, body sway, VAS perception and feeling high ([4]; 1.5 mg Cohort): less consistent effects; VAS mood or VAS calmness ([4]; oral QD 12 days, any dose, Day 1 or Day 12): Did not affect VAS mood or VAS calmness at any dose on either Day 1 or Day 12; VAS external perception and VAS internal perception (Bowdle) [4, 12]: remained unaffected at 1.0 mg, 2.0 mg, and 5.0 mg but significantly increased at 1.5 mg on Day 1 and Day 12; VAS feeling high (Bowdle) [4, 12]: significantly increased at 0.5 mg on Day 1 and Day 12, and at 1.5 mg on Day 12 with no apparent dose-related effect; body sway [4, 12]: significantly increased body sway at 5.0 mg on Day 1; also recorded: Significantly increased body sway at the highest dose level of 5.0 mg on Day 1 but not on Day 12; also recorded: significantly increased body sway at 5.0 mg acutely; left pupil/iris ratio [4, 12]: Significantly reduced left pupil/iris ratio at 1.0 mg, 1.5 mg, and 5.0 mg on Day 1 but not on Day 12; saccadic reaction time [4, 12]: Significantly increased saccadic reaction time only at the highest dose level of 5.0 mg on Day 1, but not on Day 12; smooth pursuit eye movements [4, 12]: Significantly decreased smooth pursuit eye movements at 0.5 mg, 1.5 mg, and 5.0 mg on Day 1 but not on Day 12; delayed word recognition [5]: Significantly decreased delayed word recognition but not immediate recall or delayed recall at 2.0 mg on Day 12, but not on Day 1; immediate recall and delayed recall/recognition [5]: Significantly decreased immediate recall and decreased delayed recall/recognition at 5.0 mg on Day 1, but not on Day 12; reaction time for delayed word recognition [5]: Significantly increased reaction time for delayed word recognition at 1.5 mg on Day 1, but not on Day 12; also recorded: inconsistent effects on reaction time for delayed word recognition up to 1.5 mg; EEG spectral power change ([6]; Frontal-Frontal cortex, Active and Quiet Wake): increased beta, low and high gamma; EEG spectral power change ([6]; Frontal-Frontal cortex, NREM): decreased theta and alpha; also recorded: decreased delta and increased low and high gamma; duration of EEG effects ([6]; Frontal-Frontal cortex, NREM, Compound 1 high dose PO, Lorazepam 1 mg/kg IP): 48 h; EEG spectral power change ([6]; Frontal-Frontal cortex, REM): increased beta; EEG spectral power change ([6]; Frontal-Parietal cortex, Active Wake): decreased alpha but increased beta, low and high gamma; EEG spectral power change ([6]; Frontal-Parietal cortex, NREM): decreased delta, theta, and alpha; also recorded: increase in low and high gamma; duration of delta and theta effects ([6]; Frontal-Parietal cortex, NREM): 48 h; duration of increase in low and high gamma ([6]; Frontal-Parietal cortex, NREM): 48 h; EEG spectral power change [6, 13]: decreased delta but increased beta, low and high gamma; duration of EEG effects [6, 13]: 48 h; EEG spectral power change ([6]; Frontal-Parietal cortex, REM): decreased theta and alpha but increased beta and low gamma; decrease in delta/theta power ([6]; Non-REM sleep): 40%; delta and theta power ([6]; Non-REM sleep, all doses, ANOVA w Dunnett's): significant decreases in delta and theta power across all doses; EEG profile ([6]; oral dosing, rats): EEG changes indicative of an anxiolytic profile; sedation / anxiolytic profile ([6]; sleep-wake pattern and EEG profile analysis): non-sedative anxiolytic profile; EEG spectral power change ([6]; summary, Active Wake): increased low gamma and decreased alpha (Parietal ctx); EEG spectral power change ([6]; summary, Non-REM): suppressed power in low frequencies (Delta, Theta, and Alpha) and increased higher frequencies (gamma); EEG spectral power change ([6]; summary, Quiet Wake): increased beta and low gamma; EEG spectral power change ([6]; summary, REM): increased beta; Cl- flux / activity at α1 subtype [7]: blocking α1; also recorded: did not drive Cl-flux; also recorded: does not potentiate the α1 GABAA receptor subtype; MOAA/S score ([8]; 5.0 mg, 1 participant): 2; sedation versus placebo by MOAA/S ([8]; 0.5-5.0 mg oral QD 12 days): little to no impairment of alertness and no frank sedation; also recorded: did not demonstrate a difference from placebo in sedation; MOAA/S score ([8]; other participants at 5.0 mg and all other Cohorts): above 3; EC50 [9]: 820 pM; Emax [9]: 89%; EC50 [10]: 2470 pM; Emax [10]: 113%
